The record followed here is US20050239751A1, “Heterocyclic anti-viral compounds comprising metabolizable moieties and their uses” (Rigel Pharmaceuticals, Inc., priority 2004, published 2005).

The subject of series [1] is HCV replicon in 5-2 Luc replicon-comprising cells. The series is described as follows: HCV replicon assay (luciferase; HEPC_REPLICON-LUC). In kind it is cell-based, Hepatitis C virus. As to conditions: Hepatitis C virus; Tables 3-12; 50% reduction in luciferase emission, 5-2 Luc replicon cells; read-out: Replicon (IC50). In outline: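 Huh7-derived 5-2 Luc HCV replicon cells, seeded 24 h beforehand, received prodrug at various concentrations for a further 24-48 hours at 37 °C. Luciferase emission was read with Bright-Glo, and IC50 taken as the concentration giving 50% reduction in emission, reported as + (≤10 μM) or − (>10 μM).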
A general note: In antiviral work, replicon cells carry a viral genome segment that copies itself.

A short description of series [2]: Rat pharmacokinetic study, portal and jugular vein cannula, oral administration. In kind it is in vivo. As for the experimental part:
Pharamcokinetic studies were conducted in rats containing surgically implanted cannula in the portal and jugular veins. Blood samples were taken simultaneously from both cannula at various times after oral administration of the compounds. In the portal vein, the prodrugs are detected and, in some cases, the active compound, A-B-C-NHCOCHX2, has also been detected. The presence of active compound in the portal vein samples has been attributed to metabolism of the prodrug in transit through the gut wall. […] In the jugular samples, many, but not all, of the prodrugs have been detected in systemic circulation, depending on the hepatic extraction ratio of the prodrug.
Compounds were dissolved in a mixture of TPGS:PEG:PG (35%:60%:5%) and diluted with saline for oral administration. Typically, 6.5mg of compound was dissolved in 1 ml of the organic mixture and added to 5.5 ml of saline. Animals were dosed with 5 ml/kg of this mixture to give a typical dose of 5 mg/kg. All animal studies were conducted in male SpraqueDawley rats and the animals were fasted overnight prior to dose administration. Surgeries (to implant blood sampling cannula) were conducted at least two days prior to the study. […] Samples were centrifuged and the supernatant was analyzed by LC/MS/MS using the procedures outlined above. […]

A short description of series [3]: Biliary excretion in rats after oral administration. In kind it is in vivo. As to conditions: rat, four hours after oral administration. The protocol:
Evidence for the conversion of prodrug 1107 to its active metabolite in rat liver was obtained by measuring prodrug and active compound concentrations in bile fluid.
Compounds were dissolved in a mixture of TPGS:PEG:PG (35%:60%:5%) and diluted with saline for oral administration. Typically, 6.5mg of compound was dissolved in 1 ml of the organic mixture and added to 5.5 ml of saline. Animals were dosed with 5 ml/kg of this mixture to give a typical dose of 5 mg/kg. All animal studies were conducted in male SpraqueDawley rats and the animals were fasted overnight prior to dose administration. Surgeries (to implant blood sampling cannula) were conducted at least two days prior to the study. Blood samples (100 μl) were collected using sodium heparin as anticoagulant and added to 300 μl of a mixture of acetate buffer (100 mM, pH=6.5):acetonitrile:ethanol:DMSO (2:1:1:2 v/v). Samples were centrifuged and the supernatant was analyzed by LC/MS/MS using the procedures outlined above. Standard were prepared similarly using fresh rat blood from naive animals.
Esterases are present in various tissues in the liver and may further degrade the active parent compound prior to reaching the HepC virus that is localized within hepatocyte cells. Experiments with radio-labeled the active parent compound indicate that the active parent compound is excreted from the body through bile (data not shown). […]

Structures are written as SMILES. pIC50: −log10 of the molar value. Some results are limits rather than exact numbers.

In the case of `CC(C)(C)c1oc(=O)oc1CN(C(=O)C(Cl)Cl)c1ccnc(-c2cc(-c3c(Cl)cccc3Cl)no2)c1` [Cpd. 1107, 2,2-dichloro-N-[2′-[3′-(2′,6′-dichlorophenyl)-5′-isoxazoyl](4-pyridyl)]-N-[(5-t-butyl-1,3-dioxolene-2-one4-yl)methylene] acetamide], the negative logarithm of the IC50 (pIC50) in series [1] is not below 5.00. Moreover, in series [2] (Sprague-Dawley, rat, whole blood, typical dose of 5 mg/kg, male rats, read-out: Rat PK Cmax, Prodrug), the Cmax turned out to be 510 ng/mL. In addition, the “Rat PK Hepatic extraction ratio of Prodrug” value in series [2] (portal and jugular vein sampling) is reported as 0.97. For the same compound, the “Prodrug and resultant active compound levels in bile fluid” value in series [3] was “High levels”.

Broadly, the pIC50 is the negative decadic logarithm of the IC50, by convention in mol/L. The Cmax is the highest concentration seen after dosing.
